In patent US4235912A, “Biologically active new 8β-hydrazinomethyl-ergoline derivatives and a process for the preparation thereof” (Richter Gedeon Vegyeszeti Gyar Rt, priority 1978, dated 1980):
pIC50: −log10 of the molar value. Entries after “also recorded” stand apart in the source; their conditions may differ.

Columns and labels:
[1] = tested on: serotonine-induced oedema; assay: antiserotonine effect in vivo: inhibition of serotonine-induced plantar oedema; set-up: species or system rat; details: for ED50: Rattus norvegicus, 50 μg serotonine into plantar region of rats
serotonine receptors = molecular target: T1, serotonine receptors (Rattus norvegicus, UniProt P14842); assay: antiserotonine effect in vitro on isolated rat uterus sensitized with diethylstibestrol
T1 construct: isolated rat uterus sensitized with diethylstibestrol; from tissue; host or cells: isolated rat uterus, sensitized with diethylstilbestrol (printed 'diethylstibestrol')

[2] = tested on: reserpine-induced depression; assay: antidepressant activity: reserpine-induced depression, maximum increase in body temperature; assay type: in vivo; details: mice
Description: The new 8β-hydrazinomethyl-ergoline derivatives show antidepressant effects as tested on mice suffering from reserpine-induced depression. An intraperitoneal dosage of 5 mg/kg of reserpine was applied to induce depression. 18 hours later the body temperature of the animals was measured, 30 mg/kg of the compound under examination were administered intraperitoneally into the animals, and the body temperature of the animals was measured hourly for 5 hours. The maximum increase in temperature (i.e. the maximum body temperature measured after administering the compound minus the initial value) was considered as the measure of the antidepressant activity. In these tests Imipramine was used as a reference substance.

T1 sequence (P14842 whole entry): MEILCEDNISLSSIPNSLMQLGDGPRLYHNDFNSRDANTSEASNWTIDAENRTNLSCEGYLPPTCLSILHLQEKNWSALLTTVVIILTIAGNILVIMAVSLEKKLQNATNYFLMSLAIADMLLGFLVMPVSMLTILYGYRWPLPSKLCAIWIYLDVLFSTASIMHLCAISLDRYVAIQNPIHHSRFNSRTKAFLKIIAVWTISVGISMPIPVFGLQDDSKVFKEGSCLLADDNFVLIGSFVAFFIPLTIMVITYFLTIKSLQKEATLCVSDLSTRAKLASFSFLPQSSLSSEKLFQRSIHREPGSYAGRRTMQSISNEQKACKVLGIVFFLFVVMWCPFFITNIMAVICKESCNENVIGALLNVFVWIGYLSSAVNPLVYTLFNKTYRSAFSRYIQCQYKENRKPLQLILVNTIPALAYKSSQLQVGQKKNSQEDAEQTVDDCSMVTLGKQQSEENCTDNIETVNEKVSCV

Compound | ED50 ([1]; po) [mg/kg] | ED50 ([1]; sc) [mg/kg] | pIC50 (serotonine receptors) | inhibition of serotonine-induced oedema, in words ([1]; parenteral and oral administration) | antidepressant activity, in words [2]
CC(=O)NNC[C@@H]1C[C@@H]2c3cccc4c3c(cn4C)C[C@H]2N(C)C1 [Example 7, 1,6-Dimethyl-8β-([N'-acetyl-hydrazino]-methyl)-ergoline] | 3 to 10 | 0.03 | – | – | –
CC[C@@H](CO)NC(=O)[C@@H]1C=C2c3cccc4c3c(cn4C)C[C@H]2N(C)C1 [Methysergide, 1-methyl lysergic acid butanolamide, reference compound] | 0.64 | 0.026 | – | – | –
CN(C)C(=O)NNC[C@@H]1C[C@@H]2c3cccc4[nH]cc(c34)C[C@H]2N(C)C1 [Example 6, 6-Methyl-8β-([N'-dimethylcarbamoyl-hydrazino]-methyl)-ergoline] | 3 | 0.05 | – | – | –
CC(=O)NNC[C@@H]1C=C2c3cccc4[nH]cc(c34)C[C@H]2N(C)C1 [Example 9, 6-Methyl-8β-([N'-acetyl-hydrazino]-methyl)-ergol-9-ene] | 0.78 | 0.055 | 8.49 | outstandingly effective | –
CC(=O)NNC[C@@H]1C[C@@H]2c3cccc4[nH]cc(c34)C[C@H]2N(C)C1 [Example 4, 6-Methyl-8β-([N'-acetyl-hydrazino]-methyl)-ergoline] | 3 | 0.3 | – | – | –
CN(C)C(=O)NNC[C@@H]1C=C2c3cccc4[nH]cc(c34)C[C@H]2N(C)C1 [Example 8, 6-Methyl-8β-([N'-dimethylcarbamoyl-hydrazino]-methyl)-ergol-9-ene] | 3 | 0.16 | 8.53 | – | –
CNC(=S)NNC[C@@H]1C=C2c3cccc4[nH]cc(c34)C[C@H]2N(C)C1 [Example 14, 6-Methyl-8β-([N'-methylthiocarbamoyl-hydrazino]-methyl)-ergol-9-ene] | – | – | – | – | outstandingly effective; also recorded: superior to that of Imipramine
